Literature values in US6642243B1, “Migraine medicine and method for treating same” (priority 1999, dated 2003).

Experiments:
[1] = system: individuals who take these agents; details: treatment and prophylaxis of migraines
migraine patients = details: pretreatment with 2 mg/kg; p<0.05
cerebral blood flow = details: in humans

SMILES: CC[C@@H](CO)NC(=O)[C@@H]1C=C2c3cccc4c3c(cn4C)C[C@H]2N(C)C1 [methysergide]
- significant toxicity, share of the individuals who take these agents [1]: ~40%

SMILES: CN[C@@H](C)[C@@H](O)c1ccccc1 [Pseudoephedrine, pseudoephedrine]
- effects of increased postural hypotension seen in migraine patients versus normal patients (migraine patients): abolished
- effects of lower blood pressure after sustained handgrip seen in migraine patients versus normal patients (migraine patients): abolished

SMILES: Cn1c(=O)c2c(ncn2C)n(C)c1=O [Caffeine, caffeine]
- cerebral blood flow (cerebral blood flow): reduce cerebral blood flow

SMILES: C[C@@H](CO)NC(=O)[C@@H]1C=C2c3cccc4[nH]cc(c34)C[C@H]2N(C)C1 [ergonovine]
- significant toxicity, share of the individuals who take these agents [1]: ~40%
